The compounds below were run against T1, CXCR7 (Homo sapiens, UniProt P25106) (assay: CXCR7 β-arrestin recruitment assay in CHO-CXCR7 cells (ProLink/EA β-galactosidase complementation), induced by human SDF-1a). Conditions: assay buffer, SDF-1a at EC50 concentration.
T1 construct: expressed in transfected cells; host or cells: CHO cells (CHO-CXCR7), transgenes maintained with Hygromycin B and G418
Type: cell-based
Experimental: CXCR7 is fused in frame with a small enzyme donor fragment ProLink and co-expressed in CHO cells stably expressing a fusion protein of β-arrestin and the larger, N-terminal deletion mutant of β-galactosidase (called enzyme acceptor or EA). Activation of the CXCR7 stimulates binding of β-arrestin to the ProLink-tagged CXCR7 and forces complementation of the two enzyme fragments, resulting in the formation of an active β-galactosidase enzyme. The β-galactosidase enzyme activity is measured with a substrate that generates fluorescence.
CHO-CXCR7 cells (0.22×10^6/mL) were cultured in growth medium (Ham's F-12 medium with 10% fetal bovine serum (FBS)), Hygromycin B (200 ug/mL) and G418 (250 ug/mL) were used to maintain the transgenes. The day before the assay, the cells were detached from culture dishes with 0.25% trypsin-EDTA (Corning, Catalog No. 25-053-CI), plated into 96 well plate (2.2×10^5 cells/mL, 100 μL/well) and incubated overnight at 37° C. with 5% CO2. On the day of the assay, cell culture medium was removed and 100 uL of assay buffer (PBS or FBS) was added to each well. 1 μL of compound that were serially diluted in DMSO was added to each well. 5 μL of human SDF-la (Pepro Tech, Catalog No. 300-28A, at EC50 concentration pre-determined on the same day) was then added and mixed to induce CXCR7-mediated β-arrestin recruitment. The plates were incubated for 1.5 hours at 37° C. The assay buffer was removed, 100 μL substrate solution was added and the reaction was carried out at 37° C. for 30 minutes. The substrate solution was prepared by mixing 100 mL Phosphate Buffer (1M, Sigma, Catalog No. P3619-1GA), 100 mL 10% Triton X 100 (Sigma, Catalog No. T8787.), 5 mL MgCl2 (1M, Sigma, Catalog No. M1028), 1.5 mL, β-mercaptoethanol (Gibco, Catalog No. 21985-023.). 3-carboxyumbelliferyl β-D-galactopyranoside (ThermoFisher Scientific, Catalo No. F2905) was added at 0.4 mM right before use. The reaction was then stopped by adding 50 μL of Stop Solution (2.1% w/v Na2CO3) to each well. Fluorescence intensity was measured with a FlexStation 3 microplate reader (Molecular Devices) with the following setting—excitation: 360 nm, emission: 465 nm, manual Gain: 55. IC50 values were calculated with GraphPad Prism using 3 parameter nonlinear regression.

T1 sequence (P25106 whole entry): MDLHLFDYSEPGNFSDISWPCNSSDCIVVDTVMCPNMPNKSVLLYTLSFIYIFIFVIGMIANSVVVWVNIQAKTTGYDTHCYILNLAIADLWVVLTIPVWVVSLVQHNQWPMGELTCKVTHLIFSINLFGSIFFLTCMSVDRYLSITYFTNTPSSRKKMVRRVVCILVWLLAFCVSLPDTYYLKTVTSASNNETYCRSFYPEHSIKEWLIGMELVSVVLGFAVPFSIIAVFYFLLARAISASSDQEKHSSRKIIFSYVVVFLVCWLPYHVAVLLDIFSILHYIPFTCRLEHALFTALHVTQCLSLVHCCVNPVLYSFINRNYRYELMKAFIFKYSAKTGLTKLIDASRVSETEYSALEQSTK

| Compound | IC50 [µM] |
| --- | --- |
| C[C@@H](NC(=O)CC1(NC(=O)c2cc(-c3ccc(F)cc3F)on2)CN(CC2CC2)C1)c1ccccn1 [Example 1.323] | 0.1 to 1 |
| CC(C)(NC(=O)CC1(NC(=O)c2cc(-c3ccc(F)cc3F)on2)CN([C@H]2CC[C@](C)(O)CC2)C1)c1ccccc1Cl [Example 1.219] | < 0.005 |
| CC(C)(NC(=O)CC1(NC(=O)c2cc(-c3ccc(F)cc3F)on2)CN(c2ncccn2)C1)c1ccccn1 [Example 1.315] | 1 to 20 |
| Cc1cc(C)nc(C(C)(C)NC(=O)CC2(NC(=O)c3nnc(-c4ccc(F)cc4F)o3)CN([C@H]3CC[C@](C)(O)CC3)C2)n1 [Example 1.055] | 0.1 to 1 |
| CCOc1cccc(C(C)(C)NC(=O)CC2(NC(=O)c3cc(-c4ccc(F)cc4F)on3)CN([C@H]3CC[C@](C)(O)CC3)C2)c1 [Example 1.187] | 0.005 to 0.1 |
| Cc1cc(C#N)cc(C(C)(C)NC(=O)CC2(NC(=O)c3nnc(-c4ccc(F)cc4F)s3)CN([C@H]3CC[C@](C)(O)CC3)C2)n1 [Example 1.337] | < 0.005 |
| CC(C)(NC(=O)CC1(NC(=O)c2cc(-c3ccc(F)cc3F)on2)CN(CC2COC2)C1)c1cccc(Cl)c1 [Example 1.135] | 0.1 to 1 |
| CC(C)CN1CC(CC(=O)NC(C)(C)c2ccccn2)(NC(=O)c2cc(-c3ccc(F)cc3F)on2)C1 [Example 1.129] | 0.005 to 0.1 |
| Cc1ccc(F)c(C(C)(C)NC(=O)CC2(NC(=O)c3cc(-c4ccc(F)cc4F)on3)CN([C@H]3CC[C@@](C)(O)CC3)C2)c1 [Example 1.184] | < 0.005 |
| C[C@]1(O)CC[C@@H](N2CC(CC(=O)NC3(c4ccccn4)CC3)(NC(=O)c3cc(-c4ccc(F)cc4F)on3)C2)CC1 [Example 1.190] | 0.005 to 0.1 |
| Cc1cc(C(C)(C)NC(=O)CC2(NC(=O)c3cc(-c4ccc(F)cc4F)on3)CN(C3CCC4(CC3)COC4)C2)ccn1 [Example 1.159] | 0.005 to 0.1 |
| O=C(CC1(NC(=O)c2cc(-c3ccc(F)cc3F)on2)CN(C2CCCCC2)C1)NC1(c2ccccn2)CC1 [Example 1.306] | 0.005 to 0.1 |
| Cc1cc(C(C)(C)NC(=O)CC2(NC(=O)c3cc(-c4ccc(F)cc4F)on3)CN([C@H]3CC[C@](C)(O)CC3)C2)cc(C)n1 [Example 1.112] | 0.005 to 0.1 |
| CC(C)(NC(=O)CC1(NC(=O)c2nnc(-c3ccc(F)cc3F)s2)CN([C@H]2CC[C@](C)(O)CC2)C1)c1cc(Cl)ccc1F [Example 1.336] | 0.005 to 0.1 |
| COC[C@@H](NC(=O)CC1(NC(=O)c2cc(-c3ccc(F)cc3F)on2)CN(C2CCCCC2)C1)c1ccccc1 [Example 1.295] | 0.1 to 1 |
| Cc1ccc(F)c(C(C)(C)NC(=O)CC2(NC(=O)c3nnc(-c4ccc(F)cc4F)s3)CN([C@H]3CC[C@](C)(O)CC3)C2)n1 [Example 1.005] | < 0.005 |
| Cc1ccc(C(C)(C)NC(=O)CC2(NC(=O)c3cc(-c4ccc(F)cc4F)on3)CN([C@H]3CC[C@@](C)(O)CC3)C2)cc1 [Example 1.242] | 0.1 to 1 |
| Cn1nc(-c2ccc(F)cc2F)cc1C(=O)NC1(CC(=O)NC(C)(C)c2cccc(Cl)c2)CN([C@H]2CC[C@@](C)(O)CC2)C1 [Example 1.058] | 1 to 20 |
| Cc1ccnc(C(C)(C)NC(=O)CC2(NC(=O)c3nnc(-c4ccc(F)cc4F)s3)CN([C@H]3CC[C@](C)(O)CC3)C2)n1 [Example 1.041] | 0.005 to 0.1 |
| CN1CCC(N2CC(CC(=O)NC(C)(C)c3ccccn3)(NC(=O)c3cc(-c4ccc(F)cc4F)on3)C2)CC1 [Example 1.280] | 0.1 to 1 |
| CC(C)(NC(=O)CC1(NC(=O)c2cc(-c3ccc(F)cc3F)on2)CN([C@H]2CC[C@](C)(O)CC2)C1)c1ccc(F)cc1 [Example 1.260] | 0.005 to 0.1 |
| Cc1cc(C)nc(C(C)(C)NC(=O)CC2(NC(=O)c3cc(-c4ccc(F)cc4F)on3)CN([C@H]3CC[C@](C)(O)CC3)C2)c1 [Example 1.106] | < 0.005 |
| CC(C)(NC(=O)CC1(NC(=O)c2cc(-c3ccc(F)cc3F)on2)CN([C@H]2CC[C@@](C)(O)CC2)C1)c1ccc(F)cc1Cl [Example 1.252] | 0.005 to 0.1 |
| Cc1cc(C#N)cc(C(C)(C)NC(=O)CC2(NC(=O)c3nnc(-c4ccc(F)cc4F)s3)CN([C@H]3CC[C@](C)(O)CC3)C2)n1 [Example 1.352] | 0.005 to 0.1 |
| CC(C)(NC(=O)CC1(NC(=O)c2ncc(-c3ccc(F)cc3F)s2)CN([C@H]2CC[C@@](C)(O)CC2)C1)c1cccc(Cl)c1 [Example 1.045] | 0.005 to 0.1 |

| Compound | IC50 [µM] |
| --- | --- |
| COc1cccc(C(C)(C)NC(=O)CC2(NC(=O)c3cc(-c4ccc(F)cc4F)on3)CN(CC3CC3)C2)c1 [Example 1.117] | 0.1 to 1 |
| COc1cccc(C(C)(C)NC(=O)CC2(NC(=O)c3cc(-c4ccc(F)cc4F)on3)CN(CC(C)(C)O)C2)c1 [Example 1.179] | 0.005 to 0.1 |
| Cc1ccccc1C(C)(C)NC(=O)CC1(NC(=O)c2cc(-c3ccc(F)cc3F)on2)CN([C@H]2CC[C@](C)(O)CC2)C1 [Example 1.215] | < 0.005 |
| CC(C)(NC(=O)CC1(NC(=O)c2cc(-c3ccc(F)cc3F)on2)CN([C@H]2CC[C@](C)(O)CC2)C1)c1ccccc1F [Example 1.228] | < 0.005 |
| Cc1cc(C(C)(C)NC(=O)CC2(NC(=O)c3cc(-c4ccc(F)cc4F)on3)CN([C@H]3CC[C@](C)(O)CC3)C2)ccn1 [Example 1.211] | < 0.005 |
| CC(C)(O)CN1CC(CC(=O)NC(C)(C)c2cc(F)cc(F)c2)(NC(=O)c2cc(-c3ccc(F)cc3F)on2)C1 [Example 1.137] | 0.005 to 0.1 |
| CC(C)(NC(=O)CC1(NC(=O)c2cc(-c3ccc(F)cc3F)on2)CN([C@H]2CC[C@@](C)(O)CC2)C1)c1cnccn1 [Example 1.157] | 0.005 to 0.1 |
| CC(C)CN1CC(CC(=O)NC(C)(C)c2cncc(Cl)c2)(NC(=O)c2cc(-c3ccc(F)cc3F)on2)C1 [Example 1.016] | 0.005 to 0.1 |
| CC(C)(NC(=O)CC1(NC(=O)c2cc(-c3ccc(F)cc3F)on2)CN([C@H]2CC[C@](C)(O)CC2)C1)c1ccccn1 [Example 1.303] | < 0.005 |
| CCC(C)CN1CC(CC(=O)NC(C)(C)c2ccccn2)(NC(=O)c2cc(-c3ccc(F)cc3F)on2)C1 (centres unmarked) [Example 1.010] | < 0.005 |
| Cc1cccc(C(C)(C)NC(=O)CC2(NC(=O)c3cc(-c4ccc(F)cc4F)on3)CN(CC(C)(C)O)C2)n1 [Example 1.240] | 0.005 to 0.1 |
| CC(C)(NC(=O)CC1(NC(=O)c2cc(-c3ccc(F)cc3F)on2)CN(C2CCCCC2)C1)c1ccnc2[nH]ccc12 [Example 1.082] | < 0.005 |
| CC(C)CN1CC(CC(=O)NC(C)(C)c2cccc(Cl)c2)(NC(=O)c2nnc(-c3ccc(F)cc3F)s2)C1 [Example 1.040] | 0.005 to 0.1 |
| COC1(C)CCC(N2CC(CC(=O)NC(C)(C)c3ccccn3)(NC(=O)c3cc(-c4ccc(F)cc4F)on3)C2)CC1 (centres unmarked) [Example 1.285] | 0.005 to 0.1 |
| CC(C)(NC(=O)CC1(NC(=O)c2cc(-c3ccc(F)cc3F)on2)CN([C@H]2CC[C@@](C)(O)CC2)C1)c1ccccc1Cl [Example 1.218] | < 0.005 |
| CC(C)(O)CN1CC(CC(=O)NC(C)(C)c2cccc(Cl)c2)(NC(=O)c2cc(-c3ccc(F)cc3F)on2)C1 [Example 1.178] | < 0.005 |
| COc1cc(C)cc(C(C)(C)NC(=O)CC2(NC(=O)c3nnc(-c4ccc(F)cc4F)s3)CN([C@H]3CC[C@](C)(O)CC3)C2)n1 [Example 1.346] | 0.005 to 0.1 |
| CC(C)(NC(=O)CC1(NC(=O)c2cc(-c3ccc(F)cc3F)on2)CN([C@H]2CC[C@](C)(O)CC2)C1)c1ccccn1 [Example 1.035] | 0.005 to 0.1 |
| CC(C)(NC(=O)CC1(NC(=O)c2cc(-c3ccc(F)cc3F)on2)CN([C@H]2CC[C@@](C)(O)CC2)C1)c1ccc(Cl)cc1 [Example 1.249] | 0.005 to 0.1 |
| Cc1cc(C)nc(C(C)(C)NC(=O)CC2(NC(=O)c3cc(-c4ccc(F)cc4F)on3)CN([C@H]3CC[C@](C)(O)CC3)C2)n1 [Example 1.168] | < 0.005 |
| Cc1cccnc1C(C)(C)NC(=O)CC1(NC(=O)c2nnc(-c3ccc(F)cc3F)s2)CN([C@H]2CC[C@](C)(O)CC2)C1 [Example 1.012] | 0.1 to 1 |
| CC1(CN2CC(CC(=O)NC(C)(C)c3ccccn3)(NC(=O)c3cc(-c4ccc(F)cc4F)on3)C2)COC1 [Example 1.224] | 0.005 to 0.1 |
| CC(C)(NC(=O)CC1(NC(=O)c2cc(-c3ccc(F)cc3F)on2)CN(C2CCCCC2)C1)c1cccc(F)n1 [Example 1.297] | < 0.005 |
| CC(C)(NC(=O)CC1(NC(=O)c2csc(-c3ccc(F)cc3F)n2)CN([C@H]2CC[C@](C)(O)CC2)C1)c1cccc(Cl)c1 [Example 1.051] | 1 to 20 |
| Cc1cc(C)nc(C(C)(C)NC(=O)CC2(NC(=O)c3noc(-c4ccc(F)cc4F)c3C)CN(C3CCCCC3)C2)n1 [Example 1.341] | 1 to 20 |

Source: patent US12448373B2, “Azetidinyl-acetamides as CXCR7 inhibitors” (CHEMOCENTRYX, INC., priority 2021, dated 2025)
